The target of assay [1] is T1, HIV Env six-helix bundle (6HB) structure (Human immunodeficiency virus type 1 group M subtype B, UniProt P04579).
T1 construct: H9 cells chronically infected with HIV-1 (H9/HIV-1RF); endogenous in cells; host or cells: H9 cells chronically infected with HIV-1 strain RF (Env is made from the virus in the infected cells, not by transfection)
Briefly: Six-helix bundle (6HB) assay. It is filed as cell-based, HIV-1 (strain RF). The essentials:
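Flow cytometry measured binding of a six-helix-bundle-specific polyclonal antibody, detected with PE-labelled secondary at 4 °C for 45 min, on H9/HIV-1 RF chronically infected cells. Compound was given 30 min at 37 °C before 1 μg/mL soluble CD4 induction for 1 h. Inhibition appears as reduced fluorescence.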

For assay [2], the system named is HIV-1, NL4-3 strain. Briefly: Virus infection assay (virus entry and single-cycle infection). In kind it is cell-based. The following applies: Human immunodeficiency virus 1, NL43, TZM-b1, read-out: Nl4. The essentials:
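Single-cycle entry/infection read-out: β-galactosidase chemiluminescence measured one day after infection. Compounds were present during a 4 h, 37 °C exposure of TZM-b1 reporter cells to NL4-3 virus at MOI 0.01 plus DEAE-dextran (80 μg/mL final), followed by addition of complete medium.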

Molecules are shown by their SMILES. Bounds are passed on as bounds.

T1 sequence (P04579 32-519): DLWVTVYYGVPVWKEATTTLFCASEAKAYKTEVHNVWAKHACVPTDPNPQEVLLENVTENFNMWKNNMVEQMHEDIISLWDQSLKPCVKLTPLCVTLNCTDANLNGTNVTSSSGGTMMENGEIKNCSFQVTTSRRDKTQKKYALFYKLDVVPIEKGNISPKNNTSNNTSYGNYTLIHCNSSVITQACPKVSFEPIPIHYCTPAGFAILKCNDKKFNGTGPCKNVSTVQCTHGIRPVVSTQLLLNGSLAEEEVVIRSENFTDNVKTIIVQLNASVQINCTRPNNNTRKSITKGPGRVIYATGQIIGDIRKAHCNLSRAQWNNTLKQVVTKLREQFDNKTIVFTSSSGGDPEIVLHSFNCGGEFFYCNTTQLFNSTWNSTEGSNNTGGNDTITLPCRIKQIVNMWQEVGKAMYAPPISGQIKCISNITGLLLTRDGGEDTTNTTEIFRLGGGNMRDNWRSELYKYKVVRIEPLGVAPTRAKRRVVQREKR
T1 sequence (P04579 520-865): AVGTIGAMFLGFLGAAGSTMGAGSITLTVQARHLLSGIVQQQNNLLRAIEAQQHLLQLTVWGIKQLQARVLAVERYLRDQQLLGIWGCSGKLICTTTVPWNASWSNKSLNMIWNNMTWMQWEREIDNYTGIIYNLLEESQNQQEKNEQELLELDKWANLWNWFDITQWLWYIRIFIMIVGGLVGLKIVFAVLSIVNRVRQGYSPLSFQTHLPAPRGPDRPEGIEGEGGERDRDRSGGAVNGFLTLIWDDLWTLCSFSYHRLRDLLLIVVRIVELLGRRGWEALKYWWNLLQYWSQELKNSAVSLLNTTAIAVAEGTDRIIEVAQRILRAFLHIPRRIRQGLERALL

As for `COc1ccc(-c2nc3c(C(=O)N4CCN(C(CO)c5cnccc5OC)C[C@H]4C)cnn3c(C(F)(F)F)c2C)cc1` (stereo partly drawn) [methanone, [(2R)-4-[2-hydroxy-1-(4-methoxy-3-pyridinyl)ethyl]-2-methyl-1-piperazinyl][5-(4-methoxyphenyl)-6-methyl-7-(trifluoromethyl)pyrazolo[1,5-α]pyrimidin-3-yl]-], the IC50 in assay [1] and in assay [2] was less than 1000 nM in each case.
As to `COc1ccc(-c2nc3c(C(=O)N4CCN([C@H](C)c5ccc(F)c(F)c5)C[C@H]4C)cnn3c(C(F)(F)F)c2C)cc1` [methanone, [(2R)-4-[(1R)-1-(3,4-difluorophenyl)ethyl]-2-methyl-1-piperazinyl][5-(4-methoxyphenyl)-6-methyl-7-(trifluoromethyl)pyrazolo[1,5-α]pyrimidin-3-yl]-], the IC50 in assay [1] and in assay [2] was less than 1000 nM in each case.
Take `COc1ccc(-c2nc3c(C(=O)N4CCN(C(CO)c5cccc(NC(=O)OC(C)(C)C)c5)C[C@H]4C)cnn3c(C(F)(F)F)c2C)cc1` (stereo partly drawn) [carbamic acid, N-[3-[2-hydroxy-1-[(3R)-4-[[5-(4-methoxyphenyl)-6-methyl-7-(trifluoromethyl)pyrazolo[1,5-α]pyrimidin-3-yl]carbonyl]-3-methyl-1-piperazinyl]ethyl]phenyl]-, 1,1-dimethylethyl ester]: the IC50 in assay [1] and in assay [2] was 1100 to 10000 nM in each case.
For `COc1ccc(-c2nc3c(C(=O)N4CCN([C@@H](C)c5sccc5Cl)C[C@H]4C)cnn3c(C(F)(F)F)c2C)cc1` [methanone, [(2R)-4-[(1S)-1-(3-chloro-2-thienyl)ethyl]-2-methyl-1-piperazinyl][5-(4-methoxyphenyl)-6-methyl-7-(trifluoromethyl)pyrazolo[1,5-α]pyrimidin-3-yl]-], the IC50 in assay [1] and in assay [2] was less than 1000 nM throughout.
Consider `COc1ccc(-c2nc3c(C(=O)N4CCN(C(CO)c5cccc(S(C)(=O)=O)c5)C[C@H]4C)cnn3c(C(F)(F)F)c2C)cc1` (stereo partly drawn) [methanone, [(2R)-4-[2-hydroxy-1-[3-(methylsulfonyl)phenyl]ethyl]-2-methyl-1-piperazinyl][5-(4-methoxyphenyl)-6-methyl-7-(trifluoromethyl)pyrazolo[1,5-α]pyrimidin-3-yl]-], for which the IC50 in assay [1] and in assay [2] was more than 10100 nM throughout.
For `COc1ccc(-c2nc3c(C(=O)N4CCN(C(CO)c5ccsc5)C[C@H]4C)cnn3c(C(F)(F)F)c2C)cc1` (stereo partly drawn) [methanone, [(2R)-4-[2-hydroxy-1-(3-thienyl)ethyl]-2-methyl-1-piperazinyl][5-(4-methoxyphenyl)-6-methyl-7-(trifluoromethyl)pyrazolo[1,5-α]pyrimidin-3-yl]-], the IC50 in assay [1] and in assay [2] was less than 1000 nM in each case.
As for `COc1ccc(-c2nc3c(C(=O)N4CCN(C(CO)c5ccc(F)cc5F)C[C@H]4C)cnn3c(C(F)(F)F)c2C)cc1` (stereo partly drawn) [methanone, [(2R)-4-[1-(2,4-difluorophenyl)-2-hydroxyethyl]-2-methyl-1-piperazinyl][5-(4-methoxyphenyl)-6-methyl-7-(trifluoromethyl)pyrazolo[1,5-α]pyrimidin-3-yl]-], the IC50 in assay [1] and in assay [2] was less than 1000 nM in each case.
Turning to `COc1ccc(-c2nc3c(C(=O)N4CCN([C@@H](C)c5cccc(N)c5)C[C@H]4C)cnn3c(C(F)(F)F)c2C)cc1` [methanone, [(2R)-4-[(1S)-1-(3-aminophenyl)ethyl]-2-methyl-1-piperazinyl][5-(4-methoxyphenyl)-6-methyl-7-(trifluoromethyl)pyrazolo[1,5-α]pyrimidin-3-yl]-], the IC50 in assay [1] and in assay [2] was less than 1000 nM each time.
In the case of `COc1ccc(-c2nc3c(C(=O)N4CCN(C(CO)c5ccc(F)cc5)C[C@H]4C)cnn3c(C(F)(F)F)c2C)cc1` (stereo partly drawn) [methanone, [(2R)-4-[1-(4-fluorophenyl)-2-hydroxyethyl]-2-methyl-1-piperazinyl][5-(4-methoxyphenyl)-6-methyl-7-(trifluoromethyl)pyrazolo[1,5-α]pyrimidin-3-yl]-], the IC50 in assay [1] and in assay [2] was less than 1000 nM in each case.
With `COc1ccc(-c2nc3c(C(=O)N4CCN(C(CO)c5ccc(C#N)cc5)C[C@H]4C)cnn3c(C(F)(F)F)c2C)cc1` (stereo partly shown), the IC50 in assay [1] and in assay [2] was 1100 to 10000 nM in each case.
Take `COc1ccc(-c2nc3c(C(=O)N4CCN([C@@H](CO)c5ccccc5)C[C@H]4C)cnn3c(C(F)(F)F)c2C)cc1` [drawing 184, methanone, [(2R)-4-[(1R)-2-hydroxy-1-phenylethyl]-2-methyl-1-piperazinyl][5-(4-methoxyphenyl)-7-(trifluoromethyl)pyrazolo[1,5-α]pyrimidin-3-yl]-]: the IC50 in assay [1] and in assay [2] was less than 1000 nM each time.
As for `COc1ccc(-c2nc3c(C(=O)N4CCN(C(CO)c5cc(F)cc(F)c5)C[C@H]4C)cnn3c(C(F)(F)F)c2C)cc1` (stereo partly drawn) [methanone, [(2R)-4-[1-(3,5-difluorophenyl)-2-hydroxyethyl]-2-methyl-1-piperazinyl][5-(4-methoxyphenyl)-6-methyl-7-(trifluoromethyl)pyrazolo[1,5-α]pyrimidin-3-yl]-], the IC50 in assay [1] and in assay [2] was less than 1000 nM each time.
Take `COC(=O)C(c1ccccc1)N1CCN(C(=O)c2cnn3c(C(F)(F)F)c(C)c(-c4ccc(OC)cc4)nc23)[C@H](C)C1` (stereo partly drawn) [1-piperazineacetic acid, 4-[[5-(4-methoxyphenyl)-6-methyl-7-(trifluoromethyl)pyrazolo[1,5-α]pyrimidin-3-yl]carbonyl]-3-methyl-α-phenyl-, methyl ester, (3R)-]: the IC50 in assay [1] and in assay [2] was less than 1000 nM each time.
As for `COc1ccc(-c2nc3c(C(=O)N4CCN([C@@H](CO)c5ccccc5F)C[C@H]4C)cnn3c(C(F)(F)F)c2C)cc1` [methanone, [(2R)-4-[(1R)-1-(2-fluorophenyl)-2-hydroxyethyl]-2-methyl-1-piperazinyl][5-(4-methoxyphenyl)-6-methyl-7-(trifluoromethyl)pyrazolo[1,5-α]pyrimidin-3-yl]-], the IC50 in assay [1] and in assay [2] was less than 1000 nM in each case.
In the case of `COc1ccc(-c2nc3c(C(=O)N4CCN(C(CO)c5cccc(NC(=O)C(C)C)c5)C[C@H]4C)cnn3c(C(F)(F)F)c2C)cc1` (stereo partly drawn) [propanamide, N-[3-[2-hydroxy-1-[(3R)-4-[[5-(4-methoxyphenyl)-6-methyl-7-(trifluoromethyl)pyrazolo[1,5-α]pyrimidin-3-yl]carbonyl]-3-methyl-1-piperazinyl]ethyl]phenyl]-2-methyl-], the results for the IC50 in assay [1] and in assay [2] were less than 1000 nM and 1100 to 10000 nM, respectively.
For `COc1ccc(-c2nc3c(C(=O)N4CCN(C(CO)c5ccc(Cl)s5)C[C@H]4C)cnn3c(C(F)(F)F)c2C)cc1` (stereo partly drawn) [methanone, [(2R)-4-[1-(5-chloro-2-thienyl)-2-hydroxyethyl]-2-methyl-1-piperazinyl][5-(4-methoxyphenyl)-6-methyl-7-(trifluoromethyl)pyrazolo[1,5-α]pyrimidin-3-yl]-], in that order: less than 1000 nM and less than 1000 nM.
Turning to `COc1ccc(-c2nc3c(C(=O)N4CCN(C(CO)c5ccccc5NC(=O)C5CC5)C[C@H]4C)cnn3c(C(F)(F)F)c2C)cc1` (stereo partly drawn) [cyclopropanecarboxamide, N-[2-[2-hydroxy-1-[(3R)-4-[[5-(4-methoxyphenyl)-6-methyl-7-(trifluoromethyl)pyrazolo[1,5-α]pyrimidin-3-yl]carbonyl]-3-methyl-1-piperazinyl]ethyl]phenyl]-], the IC50 in assay [1] and in assay [2] was more than 10100 nM throughout.

The values above are taken from patent US20090215778A1, “Alpha-substituted Arylmethyl Piperazine Pyrazolo [1,5-alpha]Pyrimidine Amide Derivatives” (priority 2007, published 2009).
